In ChEMBL document CHEMBL4507268 (2021):

Legend:
[1] = biological target: RAC-beta serine/threonine-protein kinase (Homo sapiens) (UniProt P31751); conditions: Compound concentration 1000.0 nM
[2] = biological target: T1, NUAK family SNF1-like kinase 1 (Homo sapiens) (UniProt O60285); conditions: Compound concentration 1000.0 nM
T1 sequence (whole entry): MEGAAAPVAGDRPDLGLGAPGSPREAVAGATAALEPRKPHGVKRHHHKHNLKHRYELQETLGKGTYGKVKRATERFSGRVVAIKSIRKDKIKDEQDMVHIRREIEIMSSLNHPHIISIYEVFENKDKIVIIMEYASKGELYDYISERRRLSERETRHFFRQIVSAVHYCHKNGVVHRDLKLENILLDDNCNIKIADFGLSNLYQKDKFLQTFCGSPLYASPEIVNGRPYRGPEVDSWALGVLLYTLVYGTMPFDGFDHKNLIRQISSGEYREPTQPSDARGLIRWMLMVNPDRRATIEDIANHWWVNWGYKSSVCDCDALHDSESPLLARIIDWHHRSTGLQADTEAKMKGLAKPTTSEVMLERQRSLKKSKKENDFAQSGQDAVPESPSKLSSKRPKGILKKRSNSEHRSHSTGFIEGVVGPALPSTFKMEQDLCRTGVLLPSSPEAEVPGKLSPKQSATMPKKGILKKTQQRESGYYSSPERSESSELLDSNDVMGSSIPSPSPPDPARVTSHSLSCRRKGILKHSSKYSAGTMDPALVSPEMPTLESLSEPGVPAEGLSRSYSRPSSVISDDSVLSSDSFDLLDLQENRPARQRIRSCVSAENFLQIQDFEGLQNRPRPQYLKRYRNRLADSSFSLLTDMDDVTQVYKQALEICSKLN

[3] = biological target: Bone morphogenetic protein receptor type-1A (Homo sapiens) (UniProt P36894); conditions: Compound concentration 1000.0 nM
[4] = system: Epidermal growth factor receptor (Homo sapiens), P00533 [UNDEFINED MUTATION]; conditions: Compound concentration 1000.0 nM
[5] = biological target: Ephrin type-A receptor 2 (Homo sapiens) (UniProt P29317); conditions: Compound concentration 1000.0 nM
[6] = system: Receptor-type tyrosine-protein kinase FLT3 (Homo sapiens), P36888 [D835V]; conditions: Compound concentration 1000.0 nM
[7] = system: Receptor-type tyrosine-protein kinase FLT3 (Homo sapiens), P36888 [UNDEFINED MUTATION]; conditions: Compound concentration 1000.0 nM
[8] = system: eIF-2-alpha kinase GCN2 (Homo sapiens), Q9P2K8 [S808G]; conditions: Compound concentration 1000.0 nM
[9] = biological target: T2, Homeodomain-interacting protein kinase 4 (Homo sapiens) (UniProt Q8NE63); conditions: Compound concentration 1000.0 nM
T2 sequence (whole entry): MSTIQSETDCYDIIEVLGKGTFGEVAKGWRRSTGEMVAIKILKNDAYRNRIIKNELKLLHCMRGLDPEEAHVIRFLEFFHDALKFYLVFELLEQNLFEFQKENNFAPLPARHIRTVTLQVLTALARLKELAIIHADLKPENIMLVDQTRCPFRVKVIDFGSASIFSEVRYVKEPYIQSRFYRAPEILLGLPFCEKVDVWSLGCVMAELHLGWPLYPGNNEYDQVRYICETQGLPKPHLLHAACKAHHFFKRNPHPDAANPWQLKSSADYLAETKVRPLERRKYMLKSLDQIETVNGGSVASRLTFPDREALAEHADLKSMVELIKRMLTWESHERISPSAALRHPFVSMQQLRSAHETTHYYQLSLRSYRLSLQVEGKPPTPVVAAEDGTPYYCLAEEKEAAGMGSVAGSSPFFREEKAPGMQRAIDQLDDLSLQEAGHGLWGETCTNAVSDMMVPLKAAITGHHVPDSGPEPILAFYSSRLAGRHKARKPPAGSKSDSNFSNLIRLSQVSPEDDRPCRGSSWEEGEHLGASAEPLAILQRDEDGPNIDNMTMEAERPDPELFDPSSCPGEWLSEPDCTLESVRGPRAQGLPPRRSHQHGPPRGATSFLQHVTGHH

[10] = biological target: Tyrosine-protein kinase JAK2 (Homo sapiens) (UniProt O60674); conditions: Compound concentration 1000.0 nM
[11] = system: Mast/stem cell growth factor receptor Kit (Homo sapiens), P10721 [V559D,T670I]; conditions: Compound concentration 1000.0 nM
[12] = biological target: Mitogen-activated protein kinase kinase kinase 9 (Homo sapiens) (UniProt P80192); conditions: Compound concentration 1000.0 nM
[13] = biological target: Serine/threonine-protein kinase 38-like (Homo sapiens) (UniProt Q9Y2H1); conditions: Compound concentration 1000.0 nM
[14] = biological target: Platelet-derived growth factor receptor alpha (Homo sapiens) (UniProt P16234); conditions: Compound concentration 1000.0 nM
[15] = biological target: 1-phosphatidylinositol 3-phosphate 5-kinase (Homo sapiens) (UniProt Q9Y2I7); conditions: Compound concentration 1000.0 nM
[16] = biological target: T3, cAMP-dependent protein kinase catalytic subunit PRKX (Homo sapiens) (UniProt P51817); conditions: Compound concentration 1000.0 nM
T3 sequence (whole entry): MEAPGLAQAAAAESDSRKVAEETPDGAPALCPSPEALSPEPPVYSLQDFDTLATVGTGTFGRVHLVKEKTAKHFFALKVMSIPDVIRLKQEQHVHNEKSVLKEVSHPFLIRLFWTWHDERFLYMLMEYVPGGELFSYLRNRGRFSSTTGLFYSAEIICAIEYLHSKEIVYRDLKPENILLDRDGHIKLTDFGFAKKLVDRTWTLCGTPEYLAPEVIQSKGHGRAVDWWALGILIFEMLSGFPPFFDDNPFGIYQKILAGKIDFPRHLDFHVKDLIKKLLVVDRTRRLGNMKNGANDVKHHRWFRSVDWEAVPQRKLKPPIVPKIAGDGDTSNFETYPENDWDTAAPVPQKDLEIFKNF

[17] = biological target: Serine/threonine-protein kinase PRP4 homolog (Homo sapiens) (UniProt Q13523); conditions: Compound concentration 1000.0 nM
[18] = biological target: Kappa-type opioid receptor (Homo sapiens) (UniProt P41145); conditions: Compound concentration 10.0 uM
[19] = biological target: Alpha-1B adrenergic receptor (Homo sapiens) (UniProt P35368); conditions: Compound concentration 10.0 uM
[20] = biological target: Muscarinic acetylcholine receptor M2 (Homo sapiens) (UniProt P08172); conditions: Compound concentration 10.0 uM
Chain of Muscarinic acetylcholine receptor M2 (Homo sapiens) (P08172 whole entry): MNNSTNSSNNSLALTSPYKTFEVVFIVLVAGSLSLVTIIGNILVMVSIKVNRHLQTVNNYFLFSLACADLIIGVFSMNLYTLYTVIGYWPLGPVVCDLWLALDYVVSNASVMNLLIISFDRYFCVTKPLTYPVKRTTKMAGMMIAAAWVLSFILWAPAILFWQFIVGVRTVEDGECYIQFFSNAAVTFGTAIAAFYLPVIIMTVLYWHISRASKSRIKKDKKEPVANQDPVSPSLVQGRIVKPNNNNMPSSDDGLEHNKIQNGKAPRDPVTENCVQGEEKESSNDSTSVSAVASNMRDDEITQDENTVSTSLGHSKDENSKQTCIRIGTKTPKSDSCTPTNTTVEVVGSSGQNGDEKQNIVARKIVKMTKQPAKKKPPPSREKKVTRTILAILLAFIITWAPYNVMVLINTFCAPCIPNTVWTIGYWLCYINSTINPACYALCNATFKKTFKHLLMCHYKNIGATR

Chain of eIF-2-alpha kinase GCN2 (Homo sapiens), Q9P2K8 [S808G] (Q9P2K8 whole entry S808G): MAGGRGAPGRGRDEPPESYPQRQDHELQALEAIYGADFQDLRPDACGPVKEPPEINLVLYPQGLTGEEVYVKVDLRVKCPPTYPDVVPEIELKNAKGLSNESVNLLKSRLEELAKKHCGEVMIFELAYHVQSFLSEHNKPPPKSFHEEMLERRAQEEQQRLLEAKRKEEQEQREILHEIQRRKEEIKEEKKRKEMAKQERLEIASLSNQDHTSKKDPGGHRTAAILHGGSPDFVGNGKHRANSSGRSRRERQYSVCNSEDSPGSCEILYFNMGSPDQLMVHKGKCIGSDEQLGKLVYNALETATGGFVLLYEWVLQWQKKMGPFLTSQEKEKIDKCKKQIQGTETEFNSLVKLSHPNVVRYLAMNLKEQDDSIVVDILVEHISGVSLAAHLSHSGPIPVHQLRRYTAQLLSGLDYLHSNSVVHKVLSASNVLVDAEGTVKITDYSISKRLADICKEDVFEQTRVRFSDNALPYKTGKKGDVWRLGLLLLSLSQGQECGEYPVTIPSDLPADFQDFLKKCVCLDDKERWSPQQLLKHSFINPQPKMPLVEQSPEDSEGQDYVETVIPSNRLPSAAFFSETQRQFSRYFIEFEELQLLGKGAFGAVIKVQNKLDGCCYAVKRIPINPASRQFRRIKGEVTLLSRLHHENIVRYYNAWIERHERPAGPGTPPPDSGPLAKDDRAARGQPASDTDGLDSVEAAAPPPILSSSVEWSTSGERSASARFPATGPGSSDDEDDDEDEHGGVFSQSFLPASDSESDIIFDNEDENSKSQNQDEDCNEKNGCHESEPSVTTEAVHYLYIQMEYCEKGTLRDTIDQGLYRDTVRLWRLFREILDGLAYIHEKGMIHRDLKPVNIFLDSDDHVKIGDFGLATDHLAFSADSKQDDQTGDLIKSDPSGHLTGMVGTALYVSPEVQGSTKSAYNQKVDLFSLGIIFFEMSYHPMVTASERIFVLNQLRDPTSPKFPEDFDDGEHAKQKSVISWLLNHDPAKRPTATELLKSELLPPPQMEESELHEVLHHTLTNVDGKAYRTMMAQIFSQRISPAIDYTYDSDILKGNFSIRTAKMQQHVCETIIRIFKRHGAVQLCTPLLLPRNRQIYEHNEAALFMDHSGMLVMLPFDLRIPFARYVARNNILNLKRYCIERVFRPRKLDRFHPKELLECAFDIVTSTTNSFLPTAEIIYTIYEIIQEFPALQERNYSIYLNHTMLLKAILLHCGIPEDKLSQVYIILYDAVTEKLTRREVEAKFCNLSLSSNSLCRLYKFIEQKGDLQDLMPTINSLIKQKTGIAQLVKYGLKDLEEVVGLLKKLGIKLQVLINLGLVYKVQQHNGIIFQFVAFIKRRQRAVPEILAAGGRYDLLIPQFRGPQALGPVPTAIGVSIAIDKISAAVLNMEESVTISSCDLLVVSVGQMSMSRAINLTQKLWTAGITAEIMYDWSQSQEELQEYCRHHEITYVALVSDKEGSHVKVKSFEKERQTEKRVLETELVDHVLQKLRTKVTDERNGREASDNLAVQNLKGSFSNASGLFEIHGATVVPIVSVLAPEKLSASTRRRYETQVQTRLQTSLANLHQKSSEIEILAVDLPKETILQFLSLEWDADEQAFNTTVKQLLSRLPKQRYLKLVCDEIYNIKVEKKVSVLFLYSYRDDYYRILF
Chain of Platelet-derived growth factor receptor alpha (Homo sapiens) (P16234 whole entry): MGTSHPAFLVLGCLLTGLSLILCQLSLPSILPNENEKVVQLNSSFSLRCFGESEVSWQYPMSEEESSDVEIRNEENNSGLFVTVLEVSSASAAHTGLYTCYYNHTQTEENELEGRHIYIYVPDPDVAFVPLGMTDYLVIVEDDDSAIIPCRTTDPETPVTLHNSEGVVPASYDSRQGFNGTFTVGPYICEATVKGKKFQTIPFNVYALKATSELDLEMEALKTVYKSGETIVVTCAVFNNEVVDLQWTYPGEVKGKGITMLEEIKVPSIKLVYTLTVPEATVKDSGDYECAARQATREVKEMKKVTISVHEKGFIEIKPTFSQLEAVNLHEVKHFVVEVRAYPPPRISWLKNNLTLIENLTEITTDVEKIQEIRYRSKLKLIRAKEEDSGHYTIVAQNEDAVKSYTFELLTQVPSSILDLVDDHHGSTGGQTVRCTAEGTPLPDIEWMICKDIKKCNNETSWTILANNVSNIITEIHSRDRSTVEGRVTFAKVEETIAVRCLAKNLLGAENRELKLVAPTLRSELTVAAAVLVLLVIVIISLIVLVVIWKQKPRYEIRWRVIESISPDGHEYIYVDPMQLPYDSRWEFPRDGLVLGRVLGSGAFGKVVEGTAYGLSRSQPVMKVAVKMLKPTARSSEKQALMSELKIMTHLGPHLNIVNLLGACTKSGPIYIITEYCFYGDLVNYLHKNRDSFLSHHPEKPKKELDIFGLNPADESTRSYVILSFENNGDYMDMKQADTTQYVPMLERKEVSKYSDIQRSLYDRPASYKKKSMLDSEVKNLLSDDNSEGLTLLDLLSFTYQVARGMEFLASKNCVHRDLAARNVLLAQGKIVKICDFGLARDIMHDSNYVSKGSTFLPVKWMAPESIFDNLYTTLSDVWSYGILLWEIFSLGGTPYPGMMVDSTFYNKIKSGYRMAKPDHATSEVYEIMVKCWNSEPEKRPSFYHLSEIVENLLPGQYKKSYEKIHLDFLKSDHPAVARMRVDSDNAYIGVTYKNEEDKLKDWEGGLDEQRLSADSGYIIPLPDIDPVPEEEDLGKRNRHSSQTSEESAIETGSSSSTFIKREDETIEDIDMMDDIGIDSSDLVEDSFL
Chain of Bone morphogenetic protein receptor type-1A (Homo sapiens) (P36894 whole entry): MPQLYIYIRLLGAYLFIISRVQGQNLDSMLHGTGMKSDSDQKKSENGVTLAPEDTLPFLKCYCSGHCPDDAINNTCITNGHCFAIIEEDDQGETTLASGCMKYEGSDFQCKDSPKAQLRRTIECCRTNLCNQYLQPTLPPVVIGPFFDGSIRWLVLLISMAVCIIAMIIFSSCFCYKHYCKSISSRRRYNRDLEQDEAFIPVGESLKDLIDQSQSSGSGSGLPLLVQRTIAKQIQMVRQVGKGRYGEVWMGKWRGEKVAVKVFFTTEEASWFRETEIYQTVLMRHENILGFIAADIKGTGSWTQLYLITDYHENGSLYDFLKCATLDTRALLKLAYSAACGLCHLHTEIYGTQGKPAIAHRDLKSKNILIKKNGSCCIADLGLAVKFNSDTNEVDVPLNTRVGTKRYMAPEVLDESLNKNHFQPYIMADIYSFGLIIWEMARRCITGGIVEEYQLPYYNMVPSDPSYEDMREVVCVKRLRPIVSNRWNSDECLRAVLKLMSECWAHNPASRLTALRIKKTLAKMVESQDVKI
Chain of Serine/threonine-protein kinase 38-like (Homo sapiens) (Q9Y2H1 2-464 limits assumed): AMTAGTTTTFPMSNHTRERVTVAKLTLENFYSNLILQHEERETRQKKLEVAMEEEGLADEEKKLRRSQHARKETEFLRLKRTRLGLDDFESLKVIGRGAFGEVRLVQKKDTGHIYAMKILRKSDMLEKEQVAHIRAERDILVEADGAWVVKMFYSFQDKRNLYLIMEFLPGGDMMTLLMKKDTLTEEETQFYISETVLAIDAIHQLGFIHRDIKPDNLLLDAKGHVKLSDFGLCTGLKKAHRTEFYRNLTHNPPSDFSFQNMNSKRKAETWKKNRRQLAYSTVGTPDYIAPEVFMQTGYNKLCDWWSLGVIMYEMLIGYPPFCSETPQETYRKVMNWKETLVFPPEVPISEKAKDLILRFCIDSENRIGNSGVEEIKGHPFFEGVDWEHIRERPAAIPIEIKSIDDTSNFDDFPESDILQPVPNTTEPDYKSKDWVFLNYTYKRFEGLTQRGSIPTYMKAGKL
Chain of Kappa-type opioid receptor (Homo sapiens) (P41145 whole entry): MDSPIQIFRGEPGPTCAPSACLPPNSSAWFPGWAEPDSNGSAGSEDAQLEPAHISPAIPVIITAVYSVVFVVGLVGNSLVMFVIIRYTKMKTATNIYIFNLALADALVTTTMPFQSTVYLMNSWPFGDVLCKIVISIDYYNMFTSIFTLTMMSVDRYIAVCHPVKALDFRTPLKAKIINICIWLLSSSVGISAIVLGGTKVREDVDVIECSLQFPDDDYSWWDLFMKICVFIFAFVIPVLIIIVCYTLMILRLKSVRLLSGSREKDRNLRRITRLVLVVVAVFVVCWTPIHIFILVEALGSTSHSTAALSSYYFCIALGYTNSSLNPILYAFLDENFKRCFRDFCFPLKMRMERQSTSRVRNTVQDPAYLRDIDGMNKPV
Chain of RAC-beta serine/threonine-protein kinase (Homo sapiens) (P31751 whole entry): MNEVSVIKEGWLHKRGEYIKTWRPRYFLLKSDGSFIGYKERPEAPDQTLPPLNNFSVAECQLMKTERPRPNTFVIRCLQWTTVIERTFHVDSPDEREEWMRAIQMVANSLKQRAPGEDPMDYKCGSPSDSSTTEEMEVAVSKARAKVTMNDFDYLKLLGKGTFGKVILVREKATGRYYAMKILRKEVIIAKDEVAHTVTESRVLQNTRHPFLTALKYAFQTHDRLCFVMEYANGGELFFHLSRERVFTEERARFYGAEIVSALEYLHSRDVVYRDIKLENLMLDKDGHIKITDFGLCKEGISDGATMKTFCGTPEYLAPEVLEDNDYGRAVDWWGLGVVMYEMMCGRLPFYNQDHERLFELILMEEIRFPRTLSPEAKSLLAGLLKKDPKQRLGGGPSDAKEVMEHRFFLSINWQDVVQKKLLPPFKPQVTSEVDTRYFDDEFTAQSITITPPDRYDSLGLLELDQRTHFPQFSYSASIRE

Cc1nc(C2CCN(C(=O)c3ccc(OC(F)(F)F)cc3N)CC2)c2ncc(N3CCN(C)CC3)cc2n1 [BAY-693]
inactive: residual activity [1] 100% | residual activity [2] 95% | residual activity [3] 80% | residual activity [4] 100% | residual activity [5] 100% | residual activity [6] 79% | residual activity [7] 86% | residual activity [8] 90% | residual activity [9] 88% | residual activity [10] 99% | residual activity [11] 100% | residual activity [12] 97% | residual activity [13] 100% | residual activity [14] 100% | residual activity [15] 100% | residual activity [16] 100% | residual activity [17] 96% | inhibition [18] 21.2% | inhibition [19] 20.2% | inhibition [20] -1%

CN1CCN(c2cnc3c(C4CCN(C(=O)c5ccc(OC(F)(F)F)cc5N)CC4)ncnc3c2)CC1 [BAY-885]
inactive: residual activity [1] 100% | residual activity [2] 100% | residual activity [3] 79% | residual activity [4] 100% | residual activity [5] 100% | residual activity [6] 90% | residual activity [7] 93% | residual activity [8] 99% | residual activity [9] 100% | residual activity [10] 83% | residual activity [11] 100% | residual activity [12] 100% | residual activity [13] 100% | residual activity [14] 100% | residual activity [15] 98% | residual activity [16] 100% | residual activity [17] 100% | inhibition [18] 9.37% | inhibition [19] 16.4% | inhibition [20] -0.56%
